# Source: ChEMBL document CHEMBL3045409, “Synthesis and biological evaluation of ester derivatives of indomethacin as selective COX-2 inhibitors” (Med Chem Res, 2012)
# Legend:
# [1] = system: Rattus norvegicus; test: Anti-inflammatory activity in Rattus norvegicus Sprague-Dawley (rat) assessed as inhibition of carrageenan-induced paw edema at 10 mg/kg, po after 1.5 to 3 hr relative to control; type: functional
# [2] = system: Rattus norvegicus; test: Ulcerogenic activity in Rattus norvegicus Sprague-Dawley (rat) assessed as ulcer index at 10 mg/kg, po after 8 hr; type: toxicity, organism-based; set-up: dose 10 mg/kg, route oral; details: in vivo
# [3] = molecular target: T1, Prostaglandin G/H synthase 1 (Ovis aries) (UniProt P05979); test: Inhibition of Ovis aries (sheep) COX-1 assessed as appearance of oxidized N,N,N',N'-tetramethyl-p-phenylenediamine at 20 uM by colorimetric analysis
# T1 sequence (whole entry): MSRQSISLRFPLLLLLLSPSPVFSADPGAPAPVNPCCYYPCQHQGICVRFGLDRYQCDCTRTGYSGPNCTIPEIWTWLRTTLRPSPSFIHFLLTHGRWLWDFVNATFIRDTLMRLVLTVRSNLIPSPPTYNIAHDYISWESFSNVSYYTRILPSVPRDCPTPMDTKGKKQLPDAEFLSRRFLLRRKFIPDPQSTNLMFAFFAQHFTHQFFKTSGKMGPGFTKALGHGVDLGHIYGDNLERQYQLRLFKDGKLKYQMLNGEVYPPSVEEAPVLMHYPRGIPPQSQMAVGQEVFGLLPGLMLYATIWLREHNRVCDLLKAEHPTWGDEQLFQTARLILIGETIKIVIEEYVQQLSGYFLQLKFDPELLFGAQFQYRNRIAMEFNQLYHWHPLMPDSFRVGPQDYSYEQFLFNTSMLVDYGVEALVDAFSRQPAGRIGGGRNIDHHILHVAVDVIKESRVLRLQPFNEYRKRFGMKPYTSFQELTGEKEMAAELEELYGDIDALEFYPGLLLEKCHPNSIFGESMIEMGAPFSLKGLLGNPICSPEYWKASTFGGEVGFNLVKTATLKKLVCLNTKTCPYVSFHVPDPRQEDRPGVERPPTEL
inhibition [3] [%],Structure (SMILES),inhibition in vivo at 10 mg/kg [1] [%],UI [2]
,CCCCOC(=O)c1ccc(OC(=O)Cc2c(C)n(C(=O)c3ccc(Cl)cc3)c3ccc(OC)cc23)cc1,7.83,
,CCc1ccc(OC(=O)Cc2c(C)n(C(=O)c3ccc(Cl)cc3)c3ccc(OC)cc23)cc1,2.41,
,COc1ccc2c(c1)c(CC(=O)Oc1ccc(Cl)cc1)c(C)n2C(=O)c1ccc(Cl)cc1,0,
,COc1ccc2c(c1)c(CC(=O)OCCc1c(C)cc(C)cc1C)c(C)n2C(=O)c1ccc(Cl)cc1,9.04,
,COc1ccc2c(c1)c(CC(=O)O)c(C)n2C(=O)c1ccc(Cl)cc1 [INDOMETHACIN],13.9,50
,COc1ccc2c(c1)c(CC(=O)Oc1c(Cl)c(Cl)c(Cl)c(Cl)c1Cl)c(C)n2C(=O)c1ccc(Cl)cc1,0,
,COc1ccc2c(c1)c(CC(=O)OCc1ccccc1)c(C)n2C(=O)c1ccc(Cl)cc1,3.61,
,COc1ccc2c(c1)c(CC(=O)OCc1ccoc1)c(C)n2C(=O)c1ccc(Cl)cc1,0,
,COc1ccc2c(c1)c(CC(=O)Oc1ccc([N+](=O)[O-])cc1)c(C)n2C(=O)c1ccc(Cl)cc1,4.81,
,COc1ccc2c(c1)c(CC(=O)OCCN1CCCCC1)c(C)n2C(=O)c1ccc(Cl)cc1,7.23,
,COc1ccc2c(c1)c(CC(=O)OCCN1CCNCC1)c(C)n2C(=O)c1ccc(Cl)cc1,0,
12.9,CCOC(=O)c1ccc(OC(=O)Cc2c(C)n(C(=O)c3ccc(Cl)cc3)c3ccc(OC)cc23)cc1,19.9,0
